According to publication PMC9490060, “Synthesis and evaluation of anticancer activity of quillaic acid derivatives: A cell cycle arrest and apoptosis inducer through NF-κB and MAPK pathways” (Frontiers in Chemistry, 2022):

What was measured:
[1] = tested on: HepG2 (human hepatocellular carcinoma cell line); experiment: MTT anti-proliferative assay, HepG2; assay type: cell-based; details: Homo sapiens, HepG2, 48 h incubation, means ± SD, n = 3
Description: (§1) The anti-proliferative activities against five human cancer cell lines, including HCT116 (human colorectal cancer cell line), MCF-7 (human breast cancer cell line), SW620 (human colorectal cancer cell line), BEL7402 (human hepatocellular carcinoma cell line), and HepG2 (human hepatocellular carcinoma cell line) were established for all the target compounds using the MTT assay.
(§2) The propidium iodide (PI) and Annexin V-FITC apoptosis detection kit were purchased from Invitrogen (Eugene, OR, United States). 3-(4,5-Dimethylthiazol-2-yl)-2,5-diphenyl-2H-tetrazolium bromide (MTT) was purchased from Sigma-Aldrich Co. (St. Louis, MO, United States). All human cell lines were used in this study, colorectal cancer cell HCT116, colorectal cancer cell SW620, breast cancer cell MCF-7, liver hepatocellular carcinoma cell BEL7402, liver hepatocellular carcinoma HepG2 and normal liver cell L02 were initially purchased from American Type Culture Collection (ATCC, Manassas, VA, United States). RPMI-1640 media, Dulbecco’s modified Eagle’s medium (DMEM), and foetal bovine serum (FBS) were provided from Gibco Company (Grand Island, NY, United States). Cell line MCF-7 and HepG2 were cultivated in DMEM containing 10% (v/v) heat-inactivated FBS, 100 units/ml penicillin and […] streptomycin (Grand Island, NY, United States). Cell lines HCT116, BEL7402, SW620, and L02 were cultivated in RPMI 1640 medium containing 10% (v/v) heat-inactivated FBS, 100 units/ml penicillin, and […] streptomycin. The cells were incubated at 37°C under a 5% CO2 and 90% relative humidity (RH) atmosphere.
(§3) Stock solutions were prepared by diluting target compounds in DMSO at concentrations (1.25, 2.5, 5, and 10 mM). The stock solution was then diluted (1.25, 2.5, 5, and 10 μM) with culture medium, and the concentration of DMSO was controlled not to exceed 0.1%.
(§4) Place the cells in a 96-well plate at an appropriate density to ensure exponential growth (1 × 10^4–1.2×10^4 cells per well) throughout the experiment, and then allow the cells to adhere for 24 h. The cells were then treated with continuous concentrations of each compound (1.25, 2.5, 5, and 10 μM) for 48 h. After 48 h of incubation, 15 μl of MTT solution was added to each well, and the final concentration was 2 mg/ml. Then incubate for another 4 h. After incubation, remove the MTT solution and add […] of DMSO to each well for staining. Shake vigorously for 10 min at room temperature to ensure complete dissolution. The optical density (OD) was read on a microplate reader (ELx 800, BioTek, Highland Park, Winooski, VT, United States) with a wavelength of 492 nm, and then the data was analyzed.

[2] = tested on: BEL7402 (human hepatocellular carcinoma cell line); experiment: MTT anti-proliferative assay, BEL7402; assay type: cell-based; details: Homo sapiens, Bel-7402, 48 h incubation, means ± SD, n = 3
Description: as §1, §2, §3, §4

[3] = tested on: MCF-7 (human breast cancer cell line); experiment: MTT anti-proliferative assay, MCF-7; assay type: cell-based; details: Homo sapiens, MCF7, 48 h incubation, means ± SD, n = 3
Description: as §1, §2, §3, §4

[4] = tested on: HCT116 (human colorectal cancer cell line); experiment: MTT anti-proliferative assay, HCT116; assay type: cell-based; details: Homo sapiens, HCT-116, 48 h incubation, means ± SD, n = 3
Description: as §1, §2, §3, §4

[5] = tested on: SW620 (human colorectal cancer cell line); experiment: MTT anti-proliferative assay, SW620; assay type: cell-based; details: Homo sapiens, SW-620, 48 h incubation, means ± SD, n = 3
Description: as §1, §2, §3, §4

Structure (SMILES) | IC50 [1] [µM] | IC50 [2] [µM] | melting point [°C] | IC50 [3] [µM] | IC50 [4] [µM] | IC50 [5] [µM]
CC1(C)CC[C@]2(C(=O)OCc3cn(-c4ccccc4)nn3)[C@H](O)C[C@]3(C)C(=CC[C@@H]4[C@@]5(C)CC[C@H](O)[C@@](C)(C=O)[C@@H]5CC[C@]43C)[C@@H]2C1 [Compound A1, (1-phenyl-1H-1,2,3-triazol-4-yl)methyl (4aR,5R,6aS,6bR,8aR,9S,10S,12aR,12bR,14bS)-9-formyl-5,10-dihydroxy-2,2,6a,6b,9,12a-hexamethyl-1,3,4,5,6,6a,6b,7,8,8a,9,10,11,12,12a,12b,13,14b-octadecahydropicene-4a (2H)-carboxylate] | 8.28 ± 2.1 | > 10 | 186 to 188 | > 10 | 3.61 ± 1.01 | 8.96 ± 1.78
CC1(C)CC[C@]2(C(=O)OCc3cn(-c4ccc(F)cc4)nn3)[C@H](O)C[C@]3(C)C(=CC[C@@H]4[C@@]5(C)CC[C@H](O)[C@@](C)(C=O)[C@@H]5CC[C@]43C)[C@@H]2C1 [Compound A2, (1-(4-fluorophenyl)-1H-1,2,3-triazol-4-yl)methyl (4aR,5R,6aS,6bR,8aR,9S,10S,12aR,12bR,14bS)-9-formyl-5,10-dihydroxy-2,2,6a,6b,9,12a-hexamethyl-1,3,4,5,6,6a,6b,7,8,8a,9,10,11,12,12a,12b,13,14b-octadecahydropicene-4a (2H)-carboxylate] | > 10 | 3.18 ± 1.02 | 171 to 172 | > 10 | 3.04 ± 0.92 | 8.78 ± 1.77
CC1(C)CC[C@]2(C(=O)OCc3cn(-c4ccc(Cl)cc4)nn3)[C@H](O)C[C@]3(C)C(=CC[C@@H]4[C@@]5(C)CC[C@H](O)[C@@](C)(C=O)[C@@H]5CC[C@]43C)[C@@H]2C1 [Compound A3, (1-(4-chlorophenyl)-1H-1,2,3-triazol-4-yl)methyl (4aR,5R,6aS,6bR,8aR,9S,10S,12aR,12bR,14bS)-9-formyl-5,10-dihydroxy-2,2,6a,6b,9,12a-hexamethyl-1,3,4,5,6,6a,6b,7,8,8a,9,10,11,12,12a,12b,13,14b-octadecahydropicene-4a (2H)-carboxylate] | > 10 | > 10 | 193 to 194 | > 10 | > 10 | > 10
CC1(C)CC[C@]2(C(=O)OCc3cn(-c4ccc(Cl)c(Cl)c4)nn3)[C@H](O)C[C@]3(C)C(=CC[C@@H]4[C@@]5(C)CC[C@H](O)[C@@](C)(C=O)[C@@H]5CC[C@]43C)[C@@H]2C1 [Compound A4, (1-(3,4-dichlorophenyl)-1H-1,2,3-triazol-4-yl)methyl (4aR,5R,6aS,6bR,8aR,9S,10S,12aR,12bR,14bS)-9-formyl-5,10-dihydroxy-2,2,6a,6b,9,12a-hexamethyl-1,3,4,5,6,6a,6b,7,8,8a,9,10,11,12,12a,12b,13,14b-octadecahydropicene-4a (2H)-carboxylate] | > 10 | > 10 | 205 to 206 | > 10 | > 10 | > 10
CC1(C)CC[C@]2(C(=O)OCc3cn(-c4ccc(Br)cc4)nn3)[C@H](O)C[C@]3(C)C(=CC[C@@H]4[C@@]5(C)CC[C@H](O)[C@@](C)(C=O)[C@@H]5CC[C@]43C)[C@@H]2C1 [Compound A5, (1-(4-bromophenyl)-1H-1,2,3-triazol-4-yl)methyl (4aR,5R,6aS,6bR,8aR,9S,10S,12aR,12bR,14bS)-9-formyl-5,10-dihydroxy-2,2,6a,6b,9,12a-hexamethyl-1,3,4,5,6,6a,6b,7,8,8a,9,10,11,12,12a,12b,13,14b-octadecahydropicene-4a (2H)-carboxylate] | > 10 | > 10 | 190 to 192 | > 10 | > 10 | > 10
COc1ccc(-n2cc(COC(=O)[C@]34CCC(C)(C)C[C@H]3C3=CC[C@@H]5[C@@]6(C)CC[C@H](O)[C@@](C)(C=O)[C@@H]6CC[C@@]5(C)[C@]3(C)C[C@H]4O)nn2)cc1 [Compound A6, (1-(4-methoxyphenyl)-1H-1,2,3-triazol-4-yl)methyl (4aR,5R,6aS,6bR,8aR,9S,10S,12aR,12bR,14bS)-9-formyl-5,10-dihydroxy-2,2,6a,6b,9,12a-hexamethyl-1,3,4,5,6,6a,6b,7,8,8a,9,10,11,12,12a,12b,13,14b-octadecahydropicene-4a (2H)-carboxylate] | > 10 | > 10 | 192 to 193 | > 10 | > 10 | > 10
COc1ccc(-n2cc(COC(=O)[C@]34CCC(C)(C)C[C@H]3C3=CC[C@@H]5[C@@]6(C)CC[C@H](O)[C@@](C)(C=O)[C@@H]6CC[C@@]5(C)[C@]3(C)C[C@H]4O)nn2)cc1OC [Compound A7, (1-(3,4-dimethoxyphenyl)-1H-1,2,3-triazol-4-yl)methyl (4aR,5R,6aS,6bR,8aR,9S,10S,12aR,12bR,14bS)-9-formyl-5,10-dihydroxy-2,2,6a,6b,9,12a-hexamethyl-1,3,4,5,6,6a,6b,7,8,8a,9,10,11,12,12a,12b,13,14b-octadecahydropicene-4a (2H)-carboxylate] | > 10 | > 10 |  | > 10 | > 10 | > 10
COc1cc(-n2cc(COC(=O)[C@]34CCC(C)(C)C[C@H]3C3=CC[C@@H]5[C@@]6(C)CC[C@H](O)[C@@](C)(C=O)[C@@H]6CC[C@@]5(C)[C@]3(C)C[C@H]4O)nn2)cc(OC)c1OC [Compound A8, (1-(3,4,5-trimethoxyphenyl)-1H-1,2,3-triazol-4-yl)methyl (4aR,5R,6aS,6bR,8aR,9S,10S,12aR,12bR,14bS)-9-formyl-5,10-dihydroxy 2,2,6a,6b,9,12a-hexamethyl-1,3,4,5,6,6a,6b,7,8,8a,9,10,11,12,12a,12b,13,14b octadecahydropicene-4a (2H)-carboxylate] | > 10 | > 10 |  | > 10 | > 10 | > 10
Cc1ccc(-n2cc(COC(=O)[C@]34CCC(C)(C)C[C@H]3C3=CC[C@@H]5[C@@]6(C)CC[C@H](O)[C@@](C)(C=O)[C@@H]6CC[C@@]5(C)[C@]3(C)C[C@H]4O)nn2)cc1 [Compound A9, (1-(p-tolyl)-1H-1,2,3-triazol-4-yl)methyl (4aR,5R,6aS,6bR,8aR,9S,10S,12aR,12bR,14bS)-9-formyl-5,10-dihydroxy-2,2,6a,6b,9,12a-hexamethyl-1,3,4,5,6,6a,6b,7,8,8a,9,10,11,12,12a,12b,13,14b-octadecahydropicene-4a (2H)-carboxylate] | > 10 | > 10 | 204 to 206 | > 10 | > 10 | > 10
COc1cc(-n2cnn(CCOC(=O)[C@]34CCC(C)(C)C[C@H]3C3=CC[C@@H]5[C@@]6(C)CC[C@H](O)[C@@](C)(C=O)[C@@H]6CC[C@@]5(C)[C@]3(C)C[C@H]4O)c2=O)cc(OC)c1OC [Compound C6, 2-(5-oxo-4-(3,4,5-trimethoxyphenyl)-4,5-dihydro-1H-1,2,4-triazol-1-yl)ethyl (4aR,5R,6aS,6bR,8aR,9S,10S,12aR,12bR,14bS)-9-formyl-5,10-dihydroxy-2,2,6a,6b,9,12a-hexamethyl-1,3,4,5,6,6a,6b,7,8,8a,9,10,11,12,12a,12b,13,14b-octadecahydropicene-4a (2H)-carboxylate] | > 10 | > 10 |  | > 10 | 5.6 ± 1.55 | 7.35 ± 1.7
CC1(C)CC[C@]2(C(=O)O)[C@H](O)C[C@]3(C)C(=CC[C@@H]4[C@@]5(C)CC[C@H](O)[C@@](C)(C=O)[C@@H]5CC[C@]43C)[C@@H]2C1 [QA, quillaic acid] | > 10 | > 10 |  | > 10 | > 10 | > 10
